≈ marks a conversion by molar mass, not a printed value.

Common to all, as to assay type: cell-based
For experiment [1], the system named is Chloroquine sensitive (CQS) P. falciparum strain. Kind of experiment: Schizont maturation inhibition (SMI), chloroquine sensitive strain. The conditions noted are these: Plasmodium falciparum, schizont maturation inhibition determined after 24 hr. As for the experimental part: (§1) Parasites were cultured in O (+) erythrocytes in RPMI-1640 media supplemented with 25 mM HEPES buffer and 10% AB (+) serum by candlejar technique.^9 Initial culture was maintained in small vials (2.5 cm dia.) with 10% haematocrit, i.e. 10 μl erythrocytes containing 1.5% ring stage parasite in 100 μl complete media. The culture volume per well for the assay was 100 μl. Parasitamia was determined for each set of culture, number of parasites for the assay were adjusted at 1 to 1.5% by diluting with fresh O (+) RBC. Assay was done in 96 well microtitre flat-bottomed tissue culture plates. Parasite culture was synchronized at ring forms using density gradient method^10 and cultured for 24 h. in the presence of various doses of compounds and chloroquine for their effect in schizont maturation. Test was done in duplicate wells for each dose of the drugs. Control culture was done with RPMI-164 containing 10% AB (+) serum. Growth of the parasites from duplicate wells of each concentration was monitored in JSB stained^11 blood smears by counting number of schizont per 200 asexual parasites. Percent schizont maturation inhibition was calculated by the formula: (1−Nt/Nc)×100 where, Nt and Nc represent the number of schizont in the test and control well respectively.

For experiment [2] the test system is unchanged. Kind of experiment: Total parasite growth inhibition (PGI), chloroquine sensitive strain. Particulars: Plasmodium falciparum, total parasite growth inhibition determined after 48 hr.
The test system of experiment [3] is Chloroquine resistant (CQR) P. falciparum strain. Kind of experiment: Schizont maturation inhibition (SMI), chloroquine resistant strain. Particulars: Plasmodium falciparum, schizont maturation inhibition determined after 24 hr. As for the experimental part: as §1
Experiment [4] has the same test system. Kind of experiment: Total parasite growth inhibition (PGI), chloroquine resistant strain. Particulars: Plasmodium falciparum, total parasite growth inhibition determined after 48 hr.

`C=C(C#N)C(O)c1cc(C)cnc1Cl` (stereo not drawn) [Ia, 2-[(2-Chloro-5-methylpyridine-3-yl)(hydroxy)methyl]acrylonitrile]: the IC50 – broadly, the point on the concentration scale where inhibition reaches its midpoint – was found to be 1.25 µg/mL (≈ 5.99 µM) in experiment [1], 1.3 µg/mL (≈ 6.23 µM) in experiment [2], 22.5 µg/mL (≈ 108 µM) in experiment [3] and 10.5 µg/mL (≈ 50.3 µM) in experiment [4]. The IC90 – broadly, the point of the concentration-response curve where the effect stands at 90% – in experiment [1] stood at 25.5 µg/mL (≈ 122 µM); in experiment [2], 85 µg/mL (≈ 407 µM); in experiment [3], 125 µg/mL (≈ 599 µM); in experiment [4], 300 µg/mL (≈ 1440 µM).
Regarding `C=C(C(=O)OC)C(O)c1cc(-c2ccccc2)cnc1Cl` (stereo not drawn) [If, Methyl 2-[(2-chloro-5-phenylpyridine-3-yl)(hydroxy)methyl]acrylate], the IC50 came to 45 µg/mL (≈ 148 µM) in experiment [1], 115 µg/mL (≈ 379 µM) in experiment [2], 5 µg/mL (≈ 16.5 µM) in experiment [3] and 10.8 µg/mL (≈ 35.4 µM) in experiment [4]. Also, the IC90 in experiment [1] was 125 µg/mL (≈ 412 µM); in experiment [2], 350 µg/mL (≈ 1150 µM); in experiment [3], 30 µg/mL (≈ 98.8 µM); in experiment [4], 77.5 µg/mL (≈ 255 µM).
Regarding `C=C(C(=O)OC)C(O)c1cc(C)cnc1Cl` (stereo not drawn) [Ie, Methyl 2-[(2-chloro-5-methylpyridine-3-)(hydroxy)methyl]acrylate], the concentration for half-maximal inhibition (IC50) in experiment [1] amounted to 18 µg/mL (≈ 74.5 µM); in experiment [2] it was 28.5 µg/mL (≈ 118 µM); in experiment [3] it was 3.05 µg/mL (≈ 12.6 µM); in experiment [4], 5.75 µg/mL (≈ 23.8 µM). The IC90 in experiment [1] worked out at 32 µg/mL (≈ 132 µM); in experiment [2] it was 115 µg/mL (≈ 476 µM); in experiment [3], 7 µg/mL (≈ 29 µM); in experiment [4], 27.5 µg/mL (≈ 114 µM).
For the compound `C=C(C#N)C(O)c1cc(-c2ccccc2)cnc1Cl` (stereo not drawn) [Ic, 2-[(2-Chloro-5-phenylpyridine-3-yl)(hydroxy)methyl]acrylonitrile], the 50% inhibitory concentration (IC50) is 3.6 µg/mL (≈ 13.3 µM) in experiment [1], 8 µg/mL (≈ 29.6 µM) in experiment [2], 0.9 µg/mL (≈ 3.32 µM) in experiment [3] and 2.2 µg/mL (≈ 8.13 µM) in experiment [4]. Also, the IC90 was 25.5 µg/mL (≈ 94.2 µM) in experiment [1], 23 µg/mL (≈ 85 µM) in experiment [2], 1.5 µg/mL (≈ 5.54 µM) in experiment [3] and 6.75 µg/mL (≈ 24.9 µM) in experiment [4].
As to `C=C(C#N)C(O)c1cc(CC)cnc1Cl` (stereo not drawn) [Ib, 2-[(2-Chloro-5-ethylpyridine-3-yl)(hydroxy)methyl]acrylonitrile], the concentration for half-maximal inhibition (IC50) came out at 1.8 µg/mL (≈ 8.08 µM) in experiment [1], 4 µg/mL (≈ 18 µM) in experiment [2], 2.5 µg/mL (≈ 11.2 µM) in experiment [3] and 5.5 µg/mL (≈ 24.7 µM) in experiment [4]. The IC90 in experiment [1] stood at 15.5 µg/mL (≈ 69.6 µM); in experiment [2] it was 31 µg/mL (≈ 139 µM); in experiment [3], 6.5 µg/mL (≈ 29.2 µM); in experiment [4], 26 µg/mL (≈ 117 µM).
Turning to `C=C(C#N)C(O)c1ccc(C(=O)OC)nc1Cl` (stereo not drawn) [Id, Methyl 6-chloro-5-(2-cyano-1-hydroxyallyl) 2-pyridine carboxylate], the half-inhibitory concentration (IC50) came to 3.4 µg/mL (≈ 13.5 µM) in experiment [1], 7 µg/mL (≈ 27.7 µM) in experiment [2], 5.75 µg/mL (≈ 22.8 µM) in experiment [3] and 6.75 µg/mL (≈ 26.7 µM) in experiment [4]. Also, the concentration for an effect of 90% (IC90) in experiment [1] came to 22 µg/mL (≈ 87.1 µM); in experiment [2], 29 µg/mL (≈ 115 µM); in experiment [3], 25.5 µg/mL (≈ 101 µM); in experiment [4], 29 µg/mL (≈ 115 µM).

(Values after patent publication US7666883B2, “Antimalarial Baylis-Hillman adducts and a process for the preparation thereof” (Council of Scientific and Industrial Research, priority 2005, dated 2010).)
